Source: ChEMBL document CHEMBL4665893, “Scalable Synthesis, In Vitro cccDNA Reduction, and In Vivo Antihepatitis B Virus Activity of a Phosphonomethoxydeoxythreosyl Adenine Prodrug” (J Med Chem, 2020)
The source made the active and inactive calls. The rule behind the calls is not given here.

How the values were obtained:
Hepatitis B virus [1] = assay: Antiviral activity against adenovirus AdH294-WT harboring wild-type HBV genotype D accession #V01460 infected in human HepG2 cells assessed as reduction in viral replicative intermediate DNAs at 4 to 1000 nM incubated for 5 days by Southern blot analysis; assay type: functional, organism-based; settings: time 5.0 day
Hepatitis B virus [2] = assay: Antiviral activity against adenovirus AdH294-WT harboring wild-type HBV genotype D accession #V01460 infected in human HepG2 cells assessed as reduction in viral replicative intermediate DNA level at 4 nM incubated for 5 days by Southern blot analysis (reference value: 100%); assay type: functional; set-up: scale not given: the % may be the effect or the level left; settings: time 5 day
Hepatitis B virus [3] = assay: Antiviral activity against ETV-resistant and adenovirus AdH294-7LR harboring wild-type HBV infected in human HepG2 cells assessed as viral replicative intermediate DNA level at 4 nM incubated for 5 days by Southern blot analysis (reference value: 100%); assay type: functional; settings: time 5 day
Hepatitis B virus [4] = assay: Antiviral activity against adenovirus AdH294-WT harboring wild-type HBV genotype D accession #V01460 infected in human HepG2 cells assessed as reduction in viral replicative intermediate DNA level at 40 nM incubated for 5 days by Southern blot analysis (reference value: 100%); assay type: functional; set-up: scale not given: the % may be the effect or the level left; settings: time 5 day
Hepatitis B virus [5] = assay: Antiviral activity against ETV-resistant and adenovirus AdH294-7LR harboring wild-type HBV infected in human HepG2 cells assessed as viral replicative intermediate DNA level at 10000 nM incubated for 5 days by Southern blot analysis (reference value: 100%); assay type: functional; settings: time 5 day
Hepatitis B virus [6] = assay: Antiviral activity against ETV-resistant and adenovirus AdH294-7LR harboring wild-type HBV infected in human HepG2 cells assessed as reduction in viral replicative intermediate DNAs up to 100 uM incubated for 5 days by Southern blot analysis; assay type: functional, organism-based; settings: dose microM <=100, time 5.0 day
Hepatitis B virus [7] = assay: Antiviral activity against ETV-resistant and adenovirus AdH294-7LR harboring wild-type HBV infected in human HepG2 cells assessed as viral replicative intermediate DNA level at 13 nM incubated for 5 days by Southern blot analysis (reference value: 100%); assay type: functional; settings: time 5 day
Hepatitis B virus [8] = assay: Antiviral activity against ETV-resistant and adenovirus AdH294-7LR harboring wild-type HBV infected in human HepG2 cells assessed as viral replicative intermediate DNA level at 120 nM incubated for 5 days by Southern blot analysis (reference value: 100%); assay type: functional; settings: time 5 day
Hepatitis B virus [9] = assay: Antiviral activity against HBV infected hydrodynamic injection C57BL/6 mouse model assessed as reduction in serum HBV DNA level at 0.6 to 60 mg/kg, po QD for 6 days by qPCR analysis; assay type: functional, organism-based; settings: dose mg/kg 0.6-60, time 6.0 day
Hepatitis B virus [10] = assay: Antiviral activity against adenovirus AdH294-WT harboring wild-type HBV genotype D accession #V01460 infected in human HepG2 cells assessed as reduction in viral replicative intermediate DNA level at 3300 nM incubated for 5 days by Southern blot analysis (reference value: 100%); assay type: functional; set-up: scale not given: the % may be the effect or the level left; settings: time 5 day
Hepatitis B virus [11] = assay: Antiviral activity against adenovirus AdH294-WT harboring wild-type HBV genotype D accession #V01460 infected in human HepG2 cells assessed as reduction in viral replicative intermediate DNA level at 10000 nM incubated for 5 days by Southern blot analysis (reference value: 100%); assay type: functional; set-up: scale not given: the % may be the effect or the level left; settings: time 5 day
Hepatitis B virus [12] = assay: Antiviral activity against adenovirus AdH294-WT harboring wild-type HBV genotype D accession #V01460 infected in human HepG2 cells assessed as reduction in viral replicative intermediate DNA level at 13 nM incubated for 5 days by Southern blot analysis (reference value: 100%); assay type: functional; set-up: scale not given: the % may be the effect or the level left; settings: time 5 day
Hepatitis B virus [13] = assay: Antiviral activity against adenovirus AdH294-WT harboring wild-type HBV genotype D accession #V01460 infected in human HepG2 cells assessed as reduction in viral replicative intermediate DNA level at 370 nM incubated for 5 days by Southern blot analysis (reference value: 100%); assay type: functional; set-up: scale not given: the % may be the effect or the level left; settings: time 5 day
Hepatitis B virus [14] = assay: Antiviral activity against ETV-resistant and adenovirus AdH294-7LR harboring wild-type HBV infected in human HepG2 cells assessed as viral replicative intermediate DNA level at 1100 nM incubated for 5 days by Southern blot analysis (reference value: 100%); assay type: functional; settings: time 5 day
Hepatitis B virus [15] = assay: Antiviral activity against adenovirus AdH294-WT harboring wild-type HBV genotype D accession #V01460 infected in human HepG2 cells assessed as reduction in viral replicative intermediate DNA level at 1100 nM incubated for 5 days by Southern blot analysis (reference value: 100%); assay type: functional; set-up: scale not given: the % may be the effect or the level left; settings: time 5 day
[16] = Toxicity in HBV infected hydrodynamic injection C57BL/6 mouse model assessed as effect on body weight at 0.6 to 60 mg/kg, po QD for 6 days; assay type: organism-based; settings: in vivo, 144 h, dose 0.6-60 mg/kg, time 6 day
Hepatitis B virus [17] = assay: Antiviral activity against ETV-resistant and adenovirus AdH294-7LR harboring wild-type HBV infected in human HepG2 cells assessed as viral replicative intermediate DNA level at 370 nM incubated for 5 days by Southern blot analysis (reference value: 100%); assay type: functional; settings: time 5 day
Hepatitis B virus [18] = assay: Antiviral activity against ETV-resistant and adenovirus AdH294-7LR harboring wild-type HBV infected in human HepG2 cells assessed as viral replicative intermediate DNA level at 3300 nM incubated for 5 days by Southern blot analysis (reference value: 100%); assay type: functional; settings: time 5 day
Hepatitis B virus [19] = assay: Antiviral activity against adenovirus AdH294-WT harboring wild-type HBV genotype D accession #V01460 infected in human HepG2 cells assessed as reduction in viral replicative intermediate DNA level at 120 nM incubated for 5 days by Southern blot analysis (reference value: 100%); assay type: functional; set-up: scale not given: the % may be the effect or the level left; settings: time 5 day
Hepatitis B virus [20] = assay: Antiviral activity against ETV-resistant and adenovirus AdH294-7LR harboring wild-type HBV infected in human HepG2 cells assessed as viral replicative intermediate DNA level at 40 nM incubated for 5 days by Southern blot analysis (reference value: 100%); assay type: functional; settings: time 5 day
[21] = Toxicity in human HepDE19 cells assessed as reduction in beta-actin level incubated for 9 days by qPCR analysis; assay type: cell-based; settings: time 9 day
Hepatitis B virus [22] = assay: Antiviral activity against HBV infected in human HepDE19 cells assessed as reduction in HBV cccDNA incubated for 9 days by qPCR analysis; assay type: functional, organism-based; settings: HepDE19, 216 h
Hepatitis B virus [23] = assay: Antiviral activity against ETV-resistant and adenovirus AdH294-7LR harboring wild-type HBV infected in human HepG2 cells assessed as reduction in viral replicative intermediate DNAs at 4 to 1000 nM incubated for 5 days by Southern blot analysis; assay type: functional, organism-based; settings: time 5.0 day
[24] = Selectivity index, […] against HBV infected in human HepDE19 cells to CC50 for toxicity in human HepDE19 cells; assay type: cell-based; settings: read-out: Ratio CC50/IC50

| Compound | Activity (Hepatitis B virus [2]) [%] | Activity (Hepatitis B virus [3]) [%] | Activity (Hepatitis B virus [4]) [%] | Activity (Hepatitis B virus [5]) [%] | Activity (Hepatitis B virus [7]) [%] | Activity (Hepatitis B virus [8]) [%] | Activity (Hepatitis B virus [9]) | Activity (Hepatitis B virus [10]) [%] | Activity (Hepatitis B virus [11]) [%] | Activity (Hepatitis B virus [12]) [%] | Activity (Hepatitis B virus [13]) [%] | Activity (Hepatitis B virus [14]) [%] | Activity (Hepatitis B virus [15]) [%] | Activity [16] | Activity (Hepatitis B virus [17]) [%] | Activity (Hepatitis B virus [18]) [%] | Activity (Hepatitis B virus [19]) [%] | Activity (Hepatitis B virus [20]) [%] | other results |
| --- | --- | --- | --- | --- | --- | --- | --- | --- | --- | --- | --- | --- | --- | --- | --- | --- | --- | --- | --- |
| C=C1[C@H](CO)[C@@H](O)C[C@@H]1n1cnc2c(=O)[nH]c(N)nc21.O [ENTECAVIR] | 46.4 | 93.9 | 16 | 37 | 92.2 | 63.8 | Dose-dependent effect | 4.6 | 2.9 | 25.7 | 10.5 | 51.2 | 7 | Non-Toxic | 60.4 | 35.5 | 13.8 | 98.6 | Activity (Hepatitis B virus [1]): Active; Activity (Hepatitis B virus [6]): inactive |
| CC(C)OC(=O)[C@H](C)N[P@](=O)(CO[C@H](C)Cn1cnc2c(N)ncnc21)Oc1ccccc1 [TENOFOVIR ALAFENAMIDE] | 75.6 | 93.7 | 18.1 | 0 | 38.3 | 11.3 | Dose-dependent effect | 0 | 0 | 40.7 | 4.2 | 2.6 | 1.3 | Non-Toxic | 5 | 1.2 | 10.8 | 21.4 | CC50 at 216 h [21]: 0.5 µM; IC50 (Hepatitis B virus [22]): 0.04 µM; IC90 (Hepatitis B virus [22]; time 9 day): > 0.1 µM; Activity (Hepatitis B virus [23]): Active; selectivity ratio [24]: 13 |
